Data from ChEMBL document CHEMBL1158605, “Synthesis of novel beta-lactam fused spiroisoxazolidine chromanones and tetralones as potent antimicrobial agent for human and plant pathogens” (2010).
In brackets after ≈: the same amount, converted by molar mass.

Assays:
Proteus vulgaris = assay: Antibacterial activity against Proteus vulgaris; assay type: functional
Proteus mirabilis = assay: Antibacterial activity against Proteus mirabilis; assay type: functional
Salmonella enterica = assay: Antibacterial activity against Salmonella typhi; assay type: functional, Salmonella enterica subsp. enterica serovar Typhi
Staphylococcus aureus = assay: Antibacterial activity against Staphylococcus aureus; assay type: functional
Fusarium oxysporum = assay: Antifungal activity against Fusarium oxysporum; assay type: functional
Macrophomina phaseolina = assay: Antifungal activity against Macrophomina phaseolina; assay type: functional

Row | Compound | MIC (Proteus vulgaris) | MIC (Proteus mirabilis) | MIC (Salmonella enterica) | MIC (Staphylococcus aureus) | MIC (Fusarium oxysporum) | MIC (Macrophomina phaseolina)
1 | COc1ccc(N2C(=O)[C@H]3[C@@H]2[C@H]2[C@H](c4ccccc4)[C@]4(COc5ccccc5C4=O)ON2[C@@H]3C[Se]c2ccccc2)cc1 | 30 µg/mL (≈ 47.1 µM) | 55 µg/mL (≈ 86.3 µM) | 20 µg/mL (≈ 31.4 µM) | 45 µg/mL (≈ 70.6 µM) | 125 µg/mL (≈ 196 µM) | 50 µg/mL (≈ 78.4 µM)
2 | COc1ccc(N2C(=O)[C@H]3[C@@H]2[C@H]2[C@H](c4ccc(C)cc4)[C@]4(COc5ccccc5C4=O)ON2[C@@H]3C[Se]c2ccccc2)cc1 | 40 µg/mL (≈ 61.4 µM) | 65 µg/mL (≈ 99.8 µM) | 35 µg/mL (≈ 53.7 µM) | 45 µg/mL (≈ 69.1 µM) | 150 µg/mL (≈ 230 µM) | 75 µg/mL (≈ 115 µM)
3 | COc1ccc([C@H]2[C@@H]3[C@H]4[C@H](C(=O)N4c4ccc(OC)cc4)[C@@H](C[Se]c4ccccc4)N3O[C@@]23COc2ccccc2C3=O)cc1 | 15 µg/mL (≈ 22.5 µM) | 25 µg/mL (≈ 37.4 µM) | 45 µg/mL (≈ 67.4 µM) | 40 µg/mL (≈ 59.9 µM) | 125 µg/mL (≈ 187 µM) | 75 µg/mL (≈ 112 µM)
4 | COc1ccc(N2C(=O)[C@H]3[C@@H]2[C@H]2[C@H](c4ccc(Cl)cc4)[C@]4(COc5ccccc5C4=O)ON2[C@@H]3C[Se]c2ccccc2)cc1 | 10 µg/mL (≈ 14.9 µM) | 20 µg/mL (≈ 29.8 µM) | 25 µg/mL (≈ 37.2 µM) | 20 µg/mL (≈ 29.8 µM) | 75 µg/mL (≈ 112 µM) | 50 µg/mL (≈ 74.4 µM)
5 | COc1ccc(N2C(=O)[C@H]3[C@@H]2[C@H]2[C@H](c4ccc(Br)cc4)[C@]4(COc5ccccc5C4=O)ON2[C@@H]3C[Se]c2ccccc2)cc1 | 25 µg/mL (≈ 34.9 µM) | 30 µg/mL (≈ 41.9 µM) | 45 µg/mL (≈ 62.8 µM) | 30 µg/mL (≈ 41.9 µM) | 150 µg/mL (≈ 209 µM) | 75 µg/mL (≈ 105 µM)
6 | COc1ccc(N2C(=O)[C@H]3[C@@H]2[C@H]2[C@H](c4ccccc4)[C@]4(CCc5ccccc5C4=O)ON2[C@@H]3C[Se]c2ccccc2)cc1 | 40 µg/mL (≈ 62.9 µM) | 55 µg/mL (≈ 86.5 µM) | 45 µg/mL (≈ 70.8 µM) | 25 µg/mL (≈ 39.3 µM) | 125 µg/mL (≈ 197 µM) | 75 µg/mL (≈ 118 µM)
7 | COc1ccc(N2C(=O)[C@H]3[C@@H]2[C@H]2[C@H](c4ccc(C)cc4)[C@]4(CCc5ccccc5C4=O)ON2[C@@H]3C[Se]c2ccccc2)cc1 | 45 µg/mL (≈ 69.3 µM) | 50 µg/mL (≈ 77 µM) | 35 µg/mL (≈ 53.9 µM) | 40 µg/mL (≈ 61.6 µM) | 75 µg/mL (≈ 115 µM) | 25 µg/mL (≈ 38.5 µM)
8 | COc1ccc([C@H]2[C@@H]3[C@H]4[C@H](C(=O)N4c4ccc(OC)cc4)[C@@H](C[Se]c4ccccc4)N3O[C@@]23CCc2ccccc2C3=O)cc1 | 35 µg/mL (≈ 52.6 µM) | 50 µg/mL (≈ 75.1 µM) | 40 µg/mL (≈ 60.1 µM) | 45 µg/mL (≈ 67.6 µM) | 125 µg/mL (≈ 188 µM) | 50 µg/mL (≈ 75.1 µM)
9 | COc1ccc(N2C(=O)[C@H]3[C@@H]2[C@H]2[C@H](c4ccc(Cl)cc4)[C@]4(CCc5ccccc5C4=O)ON2[C@@H]3C[Se]c2ccccc2)cc1 | 45 µg/mL (≈ 67.2 µM) | 40 µg/mL (≈ 59.7 µM) | 30 µg/mL (≈ 44.8 µM) | 35 µg/mL (≈ 52.2 µM) | 50 µg/mL (≈ 74.6 µM) | 25 µg/mL (≈ 37.3 µM)
10 | COc1ccc(N2C(=O)[C@H]3[C@@H]2[C@H]2[C@H](c4ccc(Br)cc4)[C@]4(CCc5ccccc5C4=O)ON2[C@@H]3C[Se]c2ccccc2)cc1 | 35 µg/mL (≈ 49 µM) | 50 µg/mL (≈ 70 µM) | 35 µg/mL (≈ 49 µM) | 45 µg/mL (≈ 63 µM) | 150 µg/mL (≈ 210 µM) | 75 µg/mL (≈ 105 µM)
11 | COC(=O)Nc1nc2ccccc2[nH]1 [CARBENDAZIM] | – | – | – | – | 18 µg/mL (≈ 94.1 µM) | 15 µg/mL (≈ 78.5 µM)
12 | CN(C)[C@@H]1C(O)=C(C(N)=O)C(=O)[C@@]2(O)C(O)=C3C(=O)c4c(O)cccc4[C@@](C)(O)[C@H]3C[C@@H]12 [TETRACYCLINE] | 15 µg/mL (≈ 33.8 µM) | 20 µg/mL (≈ 45 µM) | 15 µg/mL (≈ 33.8 µM) | 10 µg/mL (≈ 22.5 µM) | – | –
